Experimental findings from ChEMBL document CHEMBL1127565, “Identification of two hydrophobic patches in the active-site cavity of human carbonic anhydrase II by solution-phase and solid-state studies and their use in the development of tight-binding inhibitors” (J Med Chem, 1994) are described below.

This assay addresses Carbonic anhydrase 2 (Homo sapiens, UniProt P00918).

Description: Dissociation constant against human Carbonic anhydrase II (HCA II)

`NS(=O)(=O)c1ccc(C(=O)NCc2cccc3ccccc23)cc1`: the Kd – broadly, the equilibrium constant for the complex coming apart – was 0.6 nM.
Compound `NS(=O)(=O)c1ccc(C(=O)NCC2CCCCC2)cc1` registered a Kd of 1.1 nM.
Compound `CCCCCCCCNC(=O)c1ccc(S(N)(=O)=O)cc1` had a Kd of 2.5 nM.
In turn, `NS(=O)(=O)c1ccc(C(=O)NCC23CC4CC(CC(C4)C2)C3)cc1` came in with a Kd of 2.1 nM. The Kd values of the last two compounds are within 1.5-fold of each other.
To `NS(=O)(=O)c1ccc(C(=O)N[C@@H](Cc2ccccc2)C(=O)NCC(=O)NCC(=O)O)cc1` belongs 21 nM; to `NS(=O)(=O)c1ccc(C(=O)NCC(=O)NCC(=O)OCc2ccccc2)cc1`, 71 nM.
To `CCCCc1ccc(COC(=O)CNC(=O)CNC(=O)CNC(=O)c2ccc(S(N)(=O)=O)cc2)cc1` belongs 53 nM.
With `NS(=O)(=O)c1ccc(C(=O)NCc2ccc([N+](=O)[O-])cc2)cc1` the figure was 2 nM.
`NS(=O)(=O)c1ccc(C(=O)N[C@@H](Cc2ccccc2)C(=O)NCC(=O)NCC(=O)OCc2ccccc2)cc1` yielded a Kd of 5.3 nM. This Kd is about 2.6-fold higher than that of the compound before.
With `NS(=O)(=O)c1ccc(C(=O)NCc2cccnc2)cc1` the figure was 4 nM; with `NS(=O)(=O)c1ccc(C(=O)NCC(F)(F)C(F)(F)C(F)(F)C(F)(F)C(F)(F)C(F)(F)C(F)(F)F)cc1`, 0.3 nM.
The compound `NS(=O)(=O)c1ccc(C(=O)NC(=O)c2ccco2)cc1` registered a Kd of 5.6 nM.
With `CN(C)c1ccc(CNC(=O)c2ccc(S(N)(=O)=O)cc2)cc1` the figure was 1.4 nM; with `NS(=O)(=O)c1ccc(C(=O)NCC(=O)NCC(=O)NCC(=O)NCC(=O)OCc2ccccc2)cc1`, 210 nM.
To `NS(=O)(=O)c1ccc(C(=O)N[C@H](C(=O)NCC(=O)NCC(=O)OCc2ccccc2)c2ccccc2)cc1` belongs 0.9 nM; to `NS(=O)(=O)c1ccc(C(=O)NCc2ccccn2)cc1`, 4.3 nM; to `Cc1ccccc1CNC(=O)c1ccc(S(N)(=O)=O)cc1`, 2.2 nM.
To `NS(=O)(=O)c1ccc(C(=O)NCSc2ccccc2)cc1` belongs 1.7 nM; to `NS(=O)(=O)c1ccc(C(=O)NCc2ccc(F)c(F)c2F)cc1`, 2.3 nM.
Compound `NS(=O)(=O)c1ccc(C(=O)NCc2ccncc2)cc1` yielded a Kd of 1.4 nM.
With `CNC(=O)c1ccc(S(N)(=O)=O)cc1` the figure was 150 nM.
To `NS(=O)(=O)c1ccc(C(=O)NCC(=O)NCC(=O)NCC(=O)OCc2ccccc2)cc1` belongs 75 nM.
To `NC(=O)c1ccc(S(N)(=O)=O)cc1` belongs 120 nM; to `NS(=O)(=O)c1ccc(C(=O)N[C@H](Cc2ccccc2)C(=O)NCC(=O)NCC(=O)OCc2ccccc2)cc1`, 36 nM.
